Legend:
dDATmfc [1] = target: T1, dDATmfc (Drosophila melanogaster, UniProt Q7K4Y6, DEL162-202/DEL602-606/INS607VPRG/L415A/V74A); settings: HEK293S cells; 14C-DA 0.3–60 μM; s.e.m.
dDATmfc [2] = target: T1, dDATmfc; assay type: binding
dDATmfc sub^B = dDATmfc sub^B (Drosophila melanogaster, UniProt Q7K4Y6, D121G/DEL162-202/DEL602-606/INS607VPRG/L415A/S426M/V74A); assay type: binding

## NCCc1ccc(O)c(O)c1 [dopamine]
dDATmfc [1]
  Vmax of DA transport by dDATmfc: 2.4 ± 0.2 pmol/min/10^6 cells

## COC(=O)[C@H]1[C@@H](OC(=O)c2ccccc2)C[C@@H]2CC[C@H]1N2C [cocaine]
dDATmfc [2]
  Ki: 33 ± 3 µM

## NCCc1ccc(Cl)c(Cl)c1 [DCP, 3,4-dichlorophenethylamine]
dDATmfc sub^B
  Ki: 0.267 ± 0.02 µM
